{"source": "patent US20170172955A1", "about": "“Treatment of Mixed Dyslipidemia” (priority 2015, published 2017)", "key": {"[1]": {"target": "T1, CYP2A6 (Homo sapiens, UniProt P11509)", "T1 sequence (P11509 1-494)": "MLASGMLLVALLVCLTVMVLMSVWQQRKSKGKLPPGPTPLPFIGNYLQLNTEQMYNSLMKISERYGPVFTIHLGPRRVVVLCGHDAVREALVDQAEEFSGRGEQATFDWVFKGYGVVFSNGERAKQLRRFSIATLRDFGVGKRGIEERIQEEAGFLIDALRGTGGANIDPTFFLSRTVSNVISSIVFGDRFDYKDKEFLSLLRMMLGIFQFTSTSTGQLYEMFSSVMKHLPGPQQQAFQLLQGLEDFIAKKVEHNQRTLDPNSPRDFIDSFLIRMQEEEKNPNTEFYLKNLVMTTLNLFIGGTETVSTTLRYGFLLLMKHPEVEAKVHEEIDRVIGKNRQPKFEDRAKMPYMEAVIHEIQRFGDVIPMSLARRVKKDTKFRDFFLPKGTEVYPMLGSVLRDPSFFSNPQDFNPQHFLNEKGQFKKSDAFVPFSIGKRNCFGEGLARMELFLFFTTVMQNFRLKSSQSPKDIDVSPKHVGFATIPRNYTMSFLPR", "experiment": "biochemical", "method": "(§1) Human livers, HLM141, HLM143, and HLM144 were selected from the University of Washington Human Liver Bank for this study. […] The actual concentrations used for each of the other probes are specified below. […] The seven isoforms and the metabolic pathway of each of the probes used to monitor specific isoform activity are listed below.\nCYP2A6: The 7-hydroxylation of coumarin (4 μM). The reaction is monitored by HPLC using florescence detection."}, "[2]": {"tested_on": "primary rat hepatocytes", "experiment": "Cholesterol and triglyceride synthesis ([14C]acetate) in primary rat hepatocyte cultures", "assay_type": "cell-based", "details": "for % Change in Synthesis, Cholesterol ± SEM / % Change in Synthesis, Triglyceride ± SEM: relative to vehicle cells", "method": "At end of labeling period, cells were washed with room temperature D-PBS, 2.0 mL per well and the reaction is stopped with 1.0 mL 0.75 N HCl. Cells were scraped and transferred to 15×45 mm glass vial (1 dram size). Wells were washed with 1.0 mL of methanol and added to scraped cells, followed by the addition of 2.0 mL of chloroform. Vials were capped and vortexed for 5 seconds and centrifuged in a Beckman GS 6KR centrifuge at 3,600 rpm for 15 minutes at room temperature to separate phases. The bottom chloroform phase was transferred to new 15×45 mm glass vial, dried down in a […] evaporator at 37° C. under nitrogen gas. Vials were cooled to room temperature and samples resuspended in 130 μL of n-heptane:chloroform, 4:1 by vortexing for 5 seconds. […] Plates were dried for 30 minutes in an 80° C. gravity convection oven, cooled to room temperature, and wrapped in SaranTM Wrap. Plates were exposed overnight to phosphorimager plates, scanned on Typhoon PhosporImager (Molecular Dynamics), and analyzed using Imagequant software (Molecular Dynamics)."}, "[3]": {"target": "CYP2D6 (Homo sapiens, UniProt P10635)", "sequence (P10635 whole entry)": "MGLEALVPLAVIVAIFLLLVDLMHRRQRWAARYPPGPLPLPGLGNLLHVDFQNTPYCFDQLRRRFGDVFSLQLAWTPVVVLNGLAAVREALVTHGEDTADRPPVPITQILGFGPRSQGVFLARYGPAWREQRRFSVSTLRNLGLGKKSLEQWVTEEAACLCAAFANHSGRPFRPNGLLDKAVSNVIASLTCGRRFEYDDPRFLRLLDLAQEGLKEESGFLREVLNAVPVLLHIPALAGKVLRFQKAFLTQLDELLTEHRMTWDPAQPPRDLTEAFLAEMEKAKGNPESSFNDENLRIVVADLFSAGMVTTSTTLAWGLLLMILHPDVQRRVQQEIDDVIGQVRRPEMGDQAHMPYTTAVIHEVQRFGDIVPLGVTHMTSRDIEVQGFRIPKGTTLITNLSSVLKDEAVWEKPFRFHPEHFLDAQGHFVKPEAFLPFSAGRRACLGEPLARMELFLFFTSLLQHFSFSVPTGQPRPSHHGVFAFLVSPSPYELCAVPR", "experiment": "biochemical", "method": "as §1\nCYP2D6: The O-demethylation of dextromethorphan (5 μM). The reaction is monitored by high performance liquid chromatography (HPLC) using florescence detection."}}, "note": "Like-named read-outs stand apart in the source and are kept apart here.", "data": [{"smiles": "CC(C)(CCCCOCCCCC(C)(C)C(=O)O)C(=O)O", "note": "[Gemcabene, 6,6′-oxybis(2,2-dimethylhexanoic acid)]", "values": [{"measurement": "IC50", "setting": "[1]", "result": "> 1500", "unit": "µM"}, {"measurement": "IC50", "setting": "[1]; human, microsomes", "result": "> 1500", "unit": "µM"}, {"measurement": "decrease of cholesterol synthesis (± SEM)", "setting": "[2]; 10 μM", "result": "61.5±1.8", "unit": "%"}, {"measurement": "reduction of triglyceride synthesis", "setting": "[2]; 10 μM", "result": "8.9±4.5", "unit": "%"}, {"measurement": "% Change in Synthesis, Cholesterol ± SEM", "setting": "[2]; 10 μM", "result": "−61.5 ± 1.8", "unit": "%"}, {"measurement": "% Change in Synthesis, Triglyceride ± SEM", "setting": "[2]; 10 μM", "result": "−8.9 ± 45", "unit": "%^ns"}, {"measurement": "decrease of cholesterol synthesis (± SEM)", "setting": "[2]; 30 μM", "result": "90.0±0.8", "unit": "%"}, {"measurement": "reduction of triglyceride synthesis", "setting": "[2]; 30 μM", "result": "72.1±2.9", "unit": "%"}, {"measurement": "% Change in Synthesis, Cholesterol ± SEM", "setting": "[2]; 30 μM", "result": "−90.0 ± 0.8", "unit": "%"}, {"measurement": "% Change in Synthesis, Triglyceride ± SEM", "setting": "[2]; 30 μM", "result": "−72.1 ± 2.9", "unit": "%"}, {"measurement": "IC50", "setting": "[3]", "result": "> 1500", "unit": "µM"}, {"measurement": "IC50", "setting": "[3]; human, microsomes", "result": "> 1500", "unit": "µM"}]}]}
